Data on 80 molecules can be found in the METLIN SMRT retention time set (Domingo-Almenara et al. 2019).

The nature of this series: gradient 5% acetonitrile 3 min, to 50% in 2 min, to 85% in 15 min, held 3 min, 100 µL/min. As to conditions: column: Zorbax Extend-C18 2.1 x 50 mm; eluents: water / acetonitrile, 0.1% formic acid. In outline: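 Pure standards were run in mixtures of ~100 molecules by HPLC coupled to a quadrupole time-of-flight mass spectrometer. The column was a Zorbax Extend-C18 (2.1 × 50 mm, 1.8 μm) at 100 μL/min, with water and acetonitrile each containing 0.1% formic acid, in positive and negative ionization mode. Dead and dwell volumes were 40 μL and 900 μL. Retention time was taken from computationally picked adduct peaks, each manually inspected, with data collected over 3 months.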
`CN(C)C[C@@H]1CN(c2ccncn2)C[C@H]1NC(=O)c1ccc2c(c1)OCO2` displayed an RP-LC retention time of 527 s.

As for `COc1cc([N+](=O)[O-])ccc1NC(=O)c1cccc(Br)c1`, the RP-LC retention time worked out at 1030 s.

As for `CC(C)[C@@H](C(=O)NCCc1c[nH]c2ccc(F)cc12)n1nnc2ccccc2c1=O`, the RP-LC retention time was 874 s.

In turn, `CCc1ccccc1NC(=O)C1CCN(S(=O)(=O)c2c(C)nn(-c3ccccc3)c2C)CC1` gave an RP-LC retention time of 985 s.

On to `FC(F)(F)c1nc2cc3c(cc2n1Cc1ccc(Br)cc1)OCCO3`, for which the RP-LC retention time was determined as 1080 s.

`Nc1cccc(-c2ccc(N3CCCCC3)nn2)c1` registered an RP-LC retention time of 570 s.

`Cc1ccc(CN2C(=O)C3CCCCC3C2=O)cc1S(=O)(=O)N1CCN(c2ccccn2)CC1` (stereo not given) returned an RP-LC retention time of 724 s.

Take `O=C(NCCn1ccc2ccccc21)C(=O)c1c[nH]c2ccccc12`: the RP-LC retention time was 899 s.

The molecule `O=C(NCc1ccc(F)cc1)C1CCN(c2cc(N3CCOCC3)ncn2)CC1` came in with an RP-LC retention time of 607 s.

`O=c1[nH]nc(-c2cc(-c3ccccc3)nc3ccccc23)o1` gave an RP-LC retention time of 985 s.

On to `COc1cccc(CN2CCc3nc(N4CCCC4)ncc3C2)c1`, for which the RP-LC retention time amounted to 600 s.

Molecule `CN1CCN(CCNC(=O)C2c3ccccc3C(=O)N(C3CCCC3)C2c2cccs2)CC1` (stereo not given) displayed an RP-LC retention time of 633 s.

As to `COc1cccc(-c2cc(C(=O)NCCC3=CCCCC3)n(C)n2)c1`, the RP-LC retention time turned out to be 1060 s.

Molecule `COc1ccccc1NC(=O)c1sc(-c2cn(C)c3ncccc23)nc1C` yielded an RP-LC retention time of 1060 s.

For the molecule `Cc1cc(F)ccc1NC(=O)C(C)C1CCN(C(=O)Nc2ccc(Cl)cc2)CC1` (stereo not given), the RP-LC retention time stood at 974 s.

`CCCNC(=O)C1CCN(c2nc3ccsc3c(=O)n2Cc2ccccc2)CC1` gave an RP-LC retention time of 756 s.

`NC(=O)CSc1nnnn1-c1ccccc1` gave an RP-LC retention time of 590 s.

The molecule `COC(=O)C1=CN(c2cc(F)ccc2C)c2cc(F)ccc2S1(=O)=O` displayed an RP-LC retention time of 842 s.

In turn, `O=C(NCCN1CCOCC1)c1nc(Nc2ccc(F)cc2)c2ccccc2n1` had an RP-LC retention time of 592 s.

`O=C(Cn1cnc2c(nc3n2CCCCC3)c1=O)N1CCC(Cc2ccccc2)CC1` gave an RP-LC retention time of 764 s.

In turn, `CCn1c(C(=O)N(C)C2CCCCC2)cc2c(=O)oc3ccccc3c21` came in with an RP-LC retention time of 1010 s.

`O=C(NCC1CCOCC1)Nc1c(F)cccc1F` showed an RP-LC retention time of 628 s.

Consider `Cc1cc(C)n(Cc2nc(-c3ccc(NC(=O)C4CCCCC4)cc3)oc2C)n1`, for which the RP-LC retention time was determined as 1000 s.

Molecule `Cc1nn(C(C)C)c(C)c1S(=O)(=O)N1CCN(C(=O)C(C)Oc2ccccc2)CC1` (stereo not given) had an RP-LC retention time of 665 s.

`COc1ccc(OC)c(S(=O)(=O)Nc2ccc(Br)cc2C)c1` gave an RP-LC retention time of 945 s.

For `Cc1cc(C)cc(C(=O)N2CCC(c3nc4ccncc4n3C)C2)c1` (stereo not given), the RP-LC retention time amounted to 547 s.

`Cc1ccoc1C(=O)N1CCCn2ccnc2C1c1cnn(C)c1` (stereo not given) had an RP-LC retention time of 570 s.

Turning to `CC(C)C(NC(=O)c1ccc(F)c(Cl)c1)C(=O)Nc1nc2ccccc2[nH]1` (stereo not given), the RP-LC retention time was 756 s.

Turning to `O=C(c1cn2c(n1)CCCC2)N(Cc1ccccc1)Cc1ccco1`, the RP-LC retention time amounted to 668 s.

In turn, `O=C(O)c1cccc(Nc2c(-c3ccc(N4CCOCC4)cc3)nc3cnccn23)c1` gave an RP-LC retention time of 648 s.

For the molecule `Cc1cc(C)nc(Nc2nc(CC(=O)Nc3nc(C)c(C(=O)N(C)C)s3)cs2)n1`, the RP-LC retention time was determined as 646 s.

`O=C(c1ccncc1)N1CCN(c2cc(-c3cccs3)[nH]n2)CC1` yielded an RP-LC retention time of 619 s.

The molecule `Cc1ccc(Nc2c(-c3cc(Br)ccc3F)nc3cccc(C)n23)cc1` came in with an RP-LC retention time of 814 s.

Molecule `Clc1nnc(N2CCSCC2)c2ccccc12` came in with an RP-LC retention time of 845 s.

`CN(C)C(=O)c1cc2c(s1)CCC(C(=O)NCc1ccccc1)C2` (stereo not given) gave an RP-LC retention time of 628 s.

`CC1CCC(NC(=O)c2nnc(-c3ccc(S(=O)(=O)N4CCC(C)CC4)cc3)o2)CC1` (stereo not given) displayed an RP-LC retention time of 1210 s.

Molecule `Cn1c(=O)c(N2CCC(NC(=O)Nc3ccccc3Cl)CC2)nc2ccccc21` had an RP-LC retention time of 904 s.

In the case of `CCN(CC)S(=O)(=O)c1cc(-c2nnc(-c3ccccc3Cl)o2)ccc1C`, the RP-LC retention time is 1130 s.

Consider `COc1cccc2c1OC1(C)CC2C(S(=O)(=O)c2ccc(Cl)cc2)C(=O)N1C` (stereo not given), for which the RP-LC retention time is 938 s.

For the molecule `CCOc1nc2ccccc2nc1N1CCCC(C(=O)Nc2ccc(Br)cc2)C1` (stereo not given), the RP-LC retention time was 1340 s.

The molecule `CCc1nc(-c2csc(S(=O)(=O)N3CCCC(C(=O)N(C)c4ccc(C)cc4)C3)c2)no1` (stereo not given) came in with an RP-LC retention time of 1060 s.

In turn, `CCOc1ccc(-c2cc(C(=O)N3CCN(c4ccccn4)CC3)c3ccccc3n2)cc1` gave an RP-LC retention time of 726 s.

Molecule `Cc1ccccc1CN1C(=O)CN(S(C)(=O)=O)CC1(C)C(=O)NCc1ccccc1` (stereo not given) had an RP-LC retention time of 838 s.

Consider `O=C(CCSc1ccccc1)N1CCN(c2ccc3nnc(C4CC4)n3n2)CC1`, for which the RP-LC retention time was determined as 684 s.

On to `COc1ccc(OC)c(NC(=O)COc2cc(C)nc(N3CCCC3)n2)c1`, for which the RP-LC retention time is 650 s.

`CC(=O)Nc1nc(C)c(-c2ccc(Cl)c(S(=O)(=O)NCCO)c2)s1` returned an RP-LC retention time of 685 s.

`O=C(CN1CCCC1=O)NCc1ccc(F)cc1Cl` had an RP-LC retention time of 656 s.

The molecule `Cc1ccc(-c2cc(N3CCN(C(=O)c4ccccc4Br)CC3)ncn2)cc1` returned an RP-LC retention time of 696 s.

`Cc1nc2sc(C)c(C)n2c(=O)c1NC(=O)COc1ccc(Cl)cc1Cl`: the RP-LC retention time was found to be 827 s.

On to `CCOc1ccc(-c2nc(NC(=O)c3c(F)cccc3F)sc2C)cc1`, for which the RP-LC retention time worked out at 1110 s.

In turn, `COc1cccc(-n2cc(C(=O)OCc3cc(=O)n4ccccc4n3)c3ccccc3c2=O)c1` gave an RP-LC retention time of 866 s.

In the case of `CN1c2cc(C(=O)N3CCN(c4ccccn4)CC3)ccc2C(=O)N2CCCCC21` (stereo not given), the RP-LC retention time was 588 s.

As for `O=C(Nc1ccc2c(c1)N(C(=O)c1ccco1)CCC2)Oc1ccccc1`, the RP-LC retention time is 850 s.

`O=C(NCc1cccnc1)c1c2c(nc3ccccc13)C(=O)N(C1CCCCC1)C2` returned an RP-LC retention time of 612 s.

For `COc1cccc(C(=O)N2C[C@@H]3C[C@H](NC(=O)c4ccccc4)[C@H]2C3)c1OC`, the RP-LC retention time stood at 682 s.

Turning to `COc1cccc(NC(=O)c2c(O)c3cccnc3n(-c3ccc(F)cc3)c2=O)c1`, the RP-LC retention time was 1200 s.

`CCOCCCNC(=O)C1CCCN(c2ccc(=O)n(-c3ccc(F)cc3)n2)C1` (stereo not given) returned an RP-LC retention time of 697 s.

`CS(=O)(=O)N1CCOc2ccc(NC(=O)C3CC3)cc2C1` gave an RP-LC retention time of 696 s.

The molecule `O=C(Nc1nc(-c2cc([N+](=O)[O-])cs2)cs1)C1=COCCO1` showed an RP-LC retention time of 829 s.

Molecule `Cc1ccc(NC(=O)NCC2CCOCC2)cc1` yielded an RP-LC retention time of 704 s.

Take `Cc1cc(N2CCCCC2)nc(N2CCN(C(=O)C3CCCCC3)CC2)n1`: the RP-LC retention time turned out to be 728 s.

As for `COc1cccc(/C=C2\CCc3ccccc3C2=O)c1`, the RP-LC retention time was found to be 1200 s.

`O=C(Cn1cnc2nc3c(cc2c1=O)CCCC3)Nc1ccc(Cl)cc1F`: the RP-LC retention time came out at 778 s.

For `CCOC(=O)c1[nH]c(C)c(CCC(=O)Nc2cc(OC)cc(OC)c2)c1C`, the RP-LC retention time is 880 s.

The molecule `CN(C1CCc2nn(C)c(=O)n2CC1)S(=O)(=O)c1cccc2cccnc12` (stereo not given) returned an RP-LC retention time of 671 s.

Turning to `CCc1cc(C(=O)Nc2ccc(N3CCOCC3)cc2)nc2cc(-c3ccco3)nn12`, the RP-LC retention time was found to be 683 s.

With `Cc1nc(C)c2c(n1)N(Cc1cccc(F)c1)C(=O)CC2`, the RP-LC retention time amounted to 666 s.

In turn, `COc1ccc(N2CCN(C(=O)C3CC(=O)N(c4ccc(C)c(C)c4)C3)CC2)nn1` (stereo not given) displayed an RP-LC retention time of 594 s.

Molecule `Cc1nc(-c2cc(S(=O)(=O)Nc3ccc(F)c(Cl)c3)c(C)s2)cs1` returned an RP-LC retention time of 1030 s.

For the molecule `O=c1ccc(-c2ccc(F)cc2)nn1CCc1nc(-c2ccc3c(c2)OCO3)no1`, the RP-LC retention time stood at 933 s.

Regarding `O=C(CCn1cnc2cc(-c3noc(COc4ccc(Cl)cc4)n3)ccc21)N1CCCC1`, the RP-LC retention time worked out at 786 s.

In turn, `CCOC(=O)N1CCN(Cc2nc(-c3ccc(N4CCCC4)nc3)no2)CC1` registered an RP-LC retention time of 604 s.

Take `COc1ccc(-n2c(=O)c3sccc3n(Cc3nc(-c4ccccc4OC)no3)c2=O)cc1`: the RP-LC retention time was determined as 856 s.

Consider `O=S(=O)(c1ccc2ccccc2c1)N1CCC(c2nc(-c3ccccn3)no2)CC1`, for which the RP-LC retention time was 952 s.

`O=C(CCc1c[nH]c2ccccc12)N1CCCN(C2CCN(CC3CC3)C2=O)CC1` (stereo not given) showed an RP-LC retention time of 570 s.

Take `CCNC(=O)N1CCc2c([nH]c3ccccc23)C12C(=O)N(C)c1ccc(Br)cc12` (stereo not given): the RP-LC retention time stood at 857 s.

For the molecule `COc1ccc(CNC(=O)C(C)n2sc3ccccc3c2=O)cc1OC` (stereo not given), the RP-LC retention time was determined as 848 s.

With `Cc1nnc(NC(=O)c2ccc(OCc3nc(-c4ccco4)cs3)cc2)s1`, the RP-LC retention time turned out to be 815 s.

Take `CCNC(=O)NCc1nc(-c2ccc(Cl)cc2)no1`: the RP-LC retention time turned out to be 752 s.

`O=c1n(Cc2cccc(C(F)(F)F)c2)nc2c(S(=O)(=O)N3CCCC3)cccn12` registered an RP-LC retention time of 885 s.
